One series is described as follows: in vitro. To be noted: dog.
Series [1] deals with influenza A (A/Hong Kong/8/68). The series is described as follows: Antiviral activity (virus-induced cytopathic effect, CellTiterGlo) in infected MDCK cells. The following applies: for EC50: MDCK cells infected with Influenza A/HK/68, MOI 0.005, five day incubation, nucleoside form. It counts as cell-based, Influenza A virus A/Hong Kong/8/68. As to the method:
MDCK cells were seeded in 96-well plates at a density of 1 × 10^4 cells per well in 100 μL of MEM medium supplemented with 10% FBS. Medium was removed the next day and the cells were washed twice with 100 μL MEM medium supplemented with 0.125% (w/v) BSA (MEM-BSA). Serially diluted compounds were added to cells in 150 μL MEM-BSA and cells were infected with influenza A (A/Hong Kong/8/68, Advanced Biotechnologies Inc.) at MOI 0.005 in 50 μL of MEM-BSA medium supplemented with 8 μg/mL trypsin (Worthington, Lakewood, NJ). After five day incubation at 37°C, virus-induced cytopathic effect was determined by adding CellTiterGlo viability reagents (Promega, Madison, WI) and the luminescence signal was measured using Perkin Elmer’s Envision MultiLabel plate reader (Santa Clara, CA). The cytotoxicity of compounds in MDCK cells was determined in replicate plates with the same setup as used in the antiviral assay, except no virus was added to the cell culture. EC50 and CC50 values were calculated by non-linear regression analysis using GraphPad Prism (La Jolla, CA) and four parameter logistic sigmoidal dose-response (variable slope) equations.

The target of series [2] is recombinant influenza polymerase trimer (RdRp) (Influenza A virus, UniProt P03431). Nature of the series: Mechanism of action, gel-based incorporation assay with miniHA template and capped 33P-m7G167 primer. To be noted: 500 μM analog in place of GTP, 500 μM each CTP, UTP, ATP, miniHA template. The format is biochemical, Influenza A virus H1N1 strain A/PR/8. Here is the method:
(§1) The PA, PB1 and PB2 genes of Influenza A virus RNA polymerase were amplified by reverse-transcription and PCR from H1N1 strain A/PR/8. The 3x FLAG tag was added to the N-terminal full-length PA and cloned into pFastBac1 vector (Life Technologies, Carlsbad, CA). Full-length PB1 and PB2 genes were cloned into pFastBac Dual vector (Life Technologies) as described previously. Recombinant baculovirus was generated for PA and PB1/PB2 using Sf9 cells and was used to co-infect Trichopulsia ni cells (Hi5) at 1.5 x 10^6 cells/ml in ESF-921 medium (Expression Systems, David, CA). Purification and biochemical characterization of the polymerase heterotrimer was described previously. The purified polymerase complex was stored at -80°C prior use.
Recombinant influenza polymerase trimer (80 ng/μL) was incubated with 595 nM ^33P-m^7G^167 and 1.6 μM miniHA template in buffer containing 50 mM HEPES (pH 7.8), 2 mM DTT, 5 mM magnesium acetate, 0.2 U/mL RNasin for 60 minutes at 37°C. After the endonuclease cleavage of ^33P-m^7G^167 was completed, 20 μM of endonuclease inhibitor 4-(1,4-bis(4-chlorobenzyl)piperidin-4-yl)-2,4-dioxobutanoic acid was added to the reaction mixture. The polymerase reactions were initiated by adding nucleotide analogs and three other natural NTPs (all at final concentrations of 500 μM) and 10 μCi α-^33P-ATP. Reactions were incubated at 37°C for 30 minutes and quenched with equal volumes of gel loading dye containing 90% formamide, 100 mM EDTA, 0.1% (w/v) bromphenol blue and xylene cyanol. Reactions were analyzed by electrophoresis (25% polyacrylamide, 8 M urea). The dried gels were exposed to phosphorimager screen and visualized using the Typhoon Trio and ImageQuant Software (GE, Piscataway, NJ.)

The target of series [3] is concentrated cRNP with endogenous viral template (Influenza A virus, UniProt P03431). The following applies: 500 μM natural NTPs and/or analogs, 60 minutes.
In series [4] the target is T1, recombinant influenza RdRp (PA/PB1/PB2 heterotrimer) (Influenza A virus, UniProt P03431). The series is described as follows: Apparent binding affinity (Kapp), single nucleotide incorporation. It counts as biochemical, Influenza A virus H1N1 strain A/PR/8. To be noted: for Kapp: SNI-G template, ApG primer, 37°C, 35 minutes, concentration converting half of 9-mer to 10-14-mer; for Selectivity factor, Kapp(analog):Kapp(GTP): natural GTP over analog. As to the method: as §1
The apparent binding affinity Kapp was determined for GTP and T-1106-TP as described by Jin et al. 250 nM recombinant polymerase trimer was pre-incubated with 2.5 μM SNI-G template, 1 μM SNI-Pro promoter, and 400 μM ApG primer in a buffer containing 40 mM Tris-HCl (pH 7.0), 20 mM NaCl, 5 mM MgCl2, 2 mM DTT, and 0.2 U/μL RNasin at 37°C. The reaction was initiated by adding a mixture of 25 μM CTP, 25 μM UTP, 25 μCi of α-^33P-UTP, and various concentrations of GTP or analogs. Reactions proceeded for 35 minutes and were quenched with equal volumes of loading dye containing 90% formamide, 100 mM EDTA, 0.1% (w/v) amount of bromphenol blue and xylene cyanol. The products were separated by 25% PAGE, visualized, and quantified by autoradiography as described above. Data were fit with Eq I, where %Max and %Min are respectively the ratios of (10+11+12+13+14-mer)/ (9+10+11+12+13+14-mer) at the highest nucleotide concentration and the baseline level of mis-incorporation of CTP/UTP in the absence of the correct nucleotide (GTP) encoded by the template sequence, Kapp is the concentration at which half of the reactant (9-mer) is converted to products (10+11+12+13+14-mers), and S is the concentration of nucleotide analog.
Y=(%Max−%Min)⋅S/Kapp+S+%Min (I)

Series [5] has as its target T1, recombinant influenza RdRp (PA/PB1/PB2 heterotrimer). Also on record: method as in PMID 23874596. The following applies: cited from earlier work.
The target of series [6] is viral ribonucleoprotein complexes from detergent-disrupted Influenza A/PR/8/34 (Influenza A virus, UniProt P03431). Nature of the series: Influenza polymerase inhibition (IC50) filter binding assay, ApG-primed RNA synthesis by cRNP. To be noted: vs T-705-RTP.
The mark [7] stands for this setting: Influenza A virus, MDCK, 120 h, read-out: EC50.

These results are taken from publication PMC5636120, “Biochemical characterization of recombinant influenza A polymerase heterotrimer complex: Polymerase activity and mechanisms of action of nucleotide analogs” (PLoS ONE, 2017).

Where “and” joins values, the source holds several entries; their conditions need not be identical. Equal values may be shown once. Read-outs that look alike come from different tables or passages of the source.

Compound `Nc1nc2c(ncn2[C@@H]2O[C@H](CO)[C@@H](O)[C@H]2F)c(=O)[nH]1` [2’FdG, 2’-deoxy, 2’F guanosine] displayed a CC50 at 5 day in “in vitro” of over 200 µM. The concentration giving a half-maximal response (EC50) – broadly, the concentration at which the effect is half-maximal – in series [1] (Influenza A virus, MDCK, 120 h) was determined as 18 µM; in series [1] (read-out: EC50), 19 ± 5 µM.
For `Nc1nc2c(ncn2[C@@H]2O[C@H](COP(=O)(O)OP(=O)(O)OP(=O)(O)O)[C@@H](O)[C@H]2F)c(=O)[nH]1` [2’FdGTP], the “Mode of action on RNA synthesis” value in series [2] was “stably incorporated into RNA”. Also, the “Incorporation / mode of action in cRNP reactions” value (from here on “Incorporation / mode of action”) in series [3] is reported as “stable incorporation”.
For `N#CC1(COP(=O)(O)OP(=O)(O)OP(=O)(O)O)OC(n2cnc3c(=O)[nH]c(N)nc32)C(F)C1O` (stereo not drawn) [4’CN-FdGTP], the “Mode of action on RNA synthesis” value in series [2] was “direct chain-termination”.
Take `N#C[C@]1(CO)O[C@@H](n2cnc3c(=O)[nH]c(N)nc32)[C@H](F)[C@@H]1O` [4’CN-FdG]: in “in vitro”, the CC50 at 5 day was over 200 µM. In addition, in series [1] (setting [7]), the EC50 is over 200 µM.
`C=C[C@]1(COP(=O)(O)OP(=O)(O)OP(=O)(O)O)O[C@@H](n2cnc3c(=O)[nH]c(N)nc32)[C@H](F)[C@@H]1O` [4’vinyl-FdGTP]: the Kapp in series [4] was determined as 29 µM; in series [4] (listed as 4'vinyl-FdGTP), 29.1 µM. Further, the “Selectivity factor, Kapp(analog):Kapp(GTP)” value in series [4] is listed as 3096. In addition, in series [2], the “Mode of action on RNA synthesis” value is “direct chain-termination”.
Take `C=C[C@]1(CO)O[C@@H](n2cnc3c(=O)[nH]c(N)nc32)[C@H](F)[C@@H]1O` [4’vinyl-FdG]: the CC50 at 5 day in “in vitro” is over 200 µM. Further, the EC50 was 110 µM in series [1] (Influenza A virus, MDCK, 120 h) and 116 ± 48 µM in series [1] (read-out: EC50).
`Nc1nc2c(ncn2[C@@H]2O[C@H](COP(=O)(O)OP(=O)(O)OP(=O)(O)O)[C@@H](O)[C@H]2O)c(=O)[nH]1` [GTP]: in series [4], the “Selectivity factor, Kapp(analog):Kapp(GTP)” value is on record as 1. Besides, the “Kapp, reported value” in series [5] is on record as 8 nM.
For `NC(=O)c1nc(F)cn([C@@H]2O[C@H](COP(=O)(O)OP(=O)(O)OP(=O)(O)O)[C@@H](O)[C@H]2O)c1=O` [T-705-RTP], the “Mode of action on RNA synthesis” value in series [2] is “delayed chain-termination”. The “Incorporation / mode of action” value in series [3] is “neither incorporation”.
In turn, `NC(=O)c1nc(F)c[nH]c1=O` [T-705] gave a CC50 in the series “in vitro” of over 100 µM. In addition, the EC50 in series [1] (Influenza A virus, MDCK, 120 h) was 2.2 µM; in series [1] (read-out: EC50), 2.4 ± 1.1 µM.
For `NC(=O)c1nccn([C@@H]2O[C@H](COP(=O)(O)OP(=O)(O)OP(=O)(O)O)[C@@H](O)[C@H]2O)c1=O` [T-1106-TP], the “Times lower selectivity factor than the reported selectivity over T-705-TP” value in series [4] (compared with reported selectivity) was 6.3. Also, the “Selectivity factor, Kapp(analog):Kapp(GTP)” value in series [4] was 3 and 2.9. The “Mode of action on RNA synthesis” value in series [2] was “delayed chain termination”. Besides, the “Fold more potent (lower enzymatic IC50) than T-705-RTP in the biochemical assay” value in series [6] worked out at 3. The “Fold less potent than T-705 in the antiviral assays” value in series [1] (vs T-705, MDCK cells) was found to be 12. Besides, the “Incorporation / mode of action” value in series [3] was “incorporation and chain termination”.
The compound `NC(=O)c1nccn([C@@H]2O[C@H](CO)[C@@H](O)[C@H]2O)c1=O` [T-1106] showed a CC50 at 5 day in “in vitro” of over 100 µM. Moreover, the concentration giving a half-maximal response (EC50) in series [1] (setting [7]) turned out to be 27 ± 6 µM.
